Paper PMC6300358, “Preacinetobactin not acinetobactin is essential for iron uptake by the BauA transporter of the pathogen Acinetobacter baumannii” (eLife, 2018)

Biological target: T1, BauA (Acinetobacter baumannii, UniProt Q76HJ9)
T1 construct: mature protein (signal peptide removed); residues 33 to 703 well defined in the apo structure
Experiment: ITC (Kd […] at Fe3+:siderophore […]; […] at […]) and […] Å crystal structure
Format: binding

T1 sequence (Q76HJ9 entry or part of it): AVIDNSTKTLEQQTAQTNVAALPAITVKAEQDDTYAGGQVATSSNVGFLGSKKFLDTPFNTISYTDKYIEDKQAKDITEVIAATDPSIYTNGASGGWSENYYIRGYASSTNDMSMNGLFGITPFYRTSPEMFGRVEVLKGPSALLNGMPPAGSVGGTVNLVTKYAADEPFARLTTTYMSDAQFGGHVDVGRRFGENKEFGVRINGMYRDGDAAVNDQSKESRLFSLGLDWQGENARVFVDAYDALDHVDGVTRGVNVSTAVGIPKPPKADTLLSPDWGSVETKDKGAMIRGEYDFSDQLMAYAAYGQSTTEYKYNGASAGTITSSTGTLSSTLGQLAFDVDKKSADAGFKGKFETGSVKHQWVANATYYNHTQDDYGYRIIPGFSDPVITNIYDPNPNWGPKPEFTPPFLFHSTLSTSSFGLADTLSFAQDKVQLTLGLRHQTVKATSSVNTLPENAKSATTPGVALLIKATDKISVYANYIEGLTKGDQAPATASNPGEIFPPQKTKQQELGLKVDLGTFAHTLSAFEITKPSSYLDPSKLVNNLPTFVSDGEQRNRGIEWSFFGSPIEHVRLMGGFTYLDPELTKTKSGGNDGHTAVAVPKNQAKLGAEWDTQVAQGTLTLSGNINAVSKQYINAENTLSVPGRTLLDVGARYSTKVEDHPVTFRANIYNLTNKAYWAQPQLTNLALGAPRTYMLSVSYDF

C[C@H]1OC(c2cccc(O)c2O)=N[C@@H]1C(=O)N(O)CCc1cnc[nH]1 [preacinetobactin]
Kd: 0.083 µM
